Data on 27 molecules can be found in US7902373B2 (Pfizer Inc, priority 2006, dated 2011).

The test has as its target human recombinant H-PGDS (Homo sapiens, UniProt O60760). Kind of test: Fluorescence intensity h-PGDS TBA enzyme assay. The class given is biochemical. To be noted: Examples up to 622 (and 3a, 3b).

human recombinant H-PGDS, sequence (O60760 whole entry): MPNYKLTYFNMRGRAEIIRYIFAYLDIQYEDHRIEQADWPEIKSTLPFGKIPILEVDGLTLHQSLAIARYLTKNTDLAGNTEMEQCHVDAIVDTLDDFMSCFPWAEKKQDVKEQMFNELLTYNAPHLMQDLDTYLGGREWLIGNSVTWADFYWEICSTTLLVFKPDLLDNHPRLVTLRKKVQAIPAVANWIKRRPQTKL

In general, IC50 refers to the midpoint of a concentration-inhibition curve. `C[C@H](c1ccccc1)n1nnnc1N1CCC(NC(=O)c2ccc(-c3cccc(F)c3)nc2)CC1` [Example 104, 6-(3-Fluorophenyl)-N-(1-{1-[(1R)-1-phenylethyl]-1H-tetrazol-5-yl}piperidin-4-yl)nicotinamide]: the IC50 worked out at 3.18 nM. For `O=C(NC1CCN(c2ncnc3c2ncn3CC(F)(F)F)CC1)c1ccc(-c2cccc(F)c2)nc1` [Example 106], the 50% inhibitory concentration (IC50) worked out at 0.873 nM.

As to `O=C(NC1CCN(c2ncnc3c2ncn3CCN2CCCCC2)CC1)c1ccc(-c2cccc(F)c2)nc1` [Example 107, 6-(3-Fluorophenyl)-N-{1-[9-(2-piperidin-1-ylethyl)-9H-purin-6-yl]piperidin-4-yl}nicotinamide], the IC50 was 0.804 nM. The result for `COc1cccc(Cn2nnnc2N2CCC(NC(=O)c3ccc(-c4cccc(F)c4)nc3)CC2)c1` [Example 108, 6-(3-Fluorophenyl)-N-{1-[1-(3-methoxybenzyl)-1H-tetrazol-5-yl}piperidin-4-yl)nicotinamide] reads 1.29 nM.

For `Cn1c(-c2cccc(O)c2)nc2c(N3CCC(NC(=O)c4ccc(-c5cccc(F)c5)nc4)CC3)ncnc21` [Example 109, 6-(3-Fluorophenyl)-N-{1-[8-(3-hydroxyphenyl)-9-methyl-9H-purin-6-yl]piperidin-4-yl}nicotinamide], the IC50 came out at 2.74 nM. Take `CCC(COC)n1cnc2c(N3CCC(NC(=O)c4ccc(-c5cccc(F)c5)nc4)CC3)ncnc21` (stereo not drawn) [Example 110, 6-(3-Fluorophenyl)-N-(1-{9-[1-(methoxymethyl)propyl]-9H-purin-6-yl}piperidin-4-yl)nicotinamide]: the half-inhibitory concentration (IC50) is 1.61 nM. `N#Cc1ccc(C(=O)c2cccnc2N2CCC(NC(=O)c3ccc(-c4cccc(F)c4)nc3)CC2)cc1` [Example 111, N-{1-[3-(4-Cyanobenzoyl)pyridin-2-yl]piperidin-4-yl}-6-(3-fluorophenyl)nicotinamide]: the IC50 was 1.62 nM. Take `O=C(NC1CCN(c2ncnc3c2ncn3C2CCCC2)CC1)c1ccc(-c2cccc(F)c2)nc1` [Example 112, N-[1-(9-Cyclopentyl-9H-purin-6-yl)piperidin-4-yl]-6-(3-fluorophenyl)nicotinamide]: the IC50 stood at 1.87 nM. Take `COCCNC(=O)c1ccc(N2CCC(NC(=O)c3ccc(-c4cccc(F)c4)nc3)CC2)nc1` [Example 113, 6-(3-Fluorophenyl)-N-[1-(5-{[(2-methoxyethyl)amino]carbonyl}pyridin-2-yl)piperidin-4-yl]nicotinamide]: the IC50 was 0.263 nM. To `O=C(NC1CCN(c2ccc(C(=O)N3CCCC3)cn2)CC1)c1ccc(-c2cccc(F)c2)nc1` [Example 114, 6-(3-Fluorophenyl)-N-{1-[5-(pyrrolidin-1-ylcarbonyl)pyridin-2-yl]piperidin-4-yl}nicotinamide] belongs 2.3 nM; to `O=C(NC1CCN(c2ncnc3c2ncn3C2CC2)CC1)c1ccc(-c2cccc(F)c2)nc1` [Example 115, N-[1-(9-Cyclopropyl-9H-purin-6-yl)piperidin-4-yl]-6-(3-fluorophenyl)nicotinamide], 0.241 nM. For the molecule `Cc1cc(N2CCC(NC(=O)c3ccc(-c4cccc(F)c4)nc3)CC2)nc(N2CCCCC2)n1` [Example 116, 6-(3-Fluorophenyl)-N-[1-(6-methyl-2-piperidin-1-ylpyrimidin-4-yl)piperidin-4-yl]nicotinamide], the IC50 amounted to 2.56 nM. The result for `O=C(NC1CCN(c2ncnc3cc(F)ccc23)CC1)c1ccc(-c2cccc(F)c2)nc1` [Example 117, 6-(3-Fluorophenyl)-N-[1-(7-fluoroquinazolin-4-yl)piperidin-4-yl]nicotinamide] reads 0.429 nM; that for `CC(C)n1cnc2c(N3CCC(NC(=O)c4ccc(-c5cccc(F)c5)nc4)CC3)ncnc21` [Example 118, 6-(3-Fluorophenyl)-N-[1-(9-isopropyl-9H-purin-6-yl)piperidin-4-yl]nicotinamide], 0.89 nM; that for `O=C(NC1CCN(c2nccc(-c3ccccc3CCO)n2)CC1)c1ccc(-c2cccc(F)c2)nc1` [Example 119, 6-(3-Fluorophenyl)-N-(1-{4-[2-(2-hydroxyethyl)phenyl]pyrimidin-2-yl}piperidin-4-yl)nicotinamide], 3.74 nM. Regarding `CCOC(=O)c1cnc(N2CCC(NC(=O)c3ccc(-c4cccc(F)c4)nc3)CC2)cc1N1CCOCC1` [Example 120, Ethyl 6-[4-({[6-(3-fluorophenyl)pyridin-3-yl]carbonyl}amino)piperidin-1-yl]-4-morpholin-4-ylnicotinate], the IC50 turned out to be 3.49 nM. To `Cc1nc(N2CCC(NC(=O)c3ccc(-c4cccc(F)c4)nc3)CC2)c(C#N)cc1F` [Example 121, N-[1-(3-Cyano-5-fluoro-6-methylpyridin-2-yl)piperidin-4-yl]-6-(3-fluorophenyl)nicotinamide] belongs 1.21 nM; to `COc1ccc2c(N3CCC(NC(=O)c4ccc(-c5cccc(F)c5)nc4)CC3)ncnc2c1OC` [Example 122, N-[1-(7,8-Dimethoxyquinazolin-4-yl)piperidin-4-yl]-6-(3-fluorophenyl)nicotinamide], 0.168 nM. Regarding `COc1cc2c(N3CCC(NC(=O)c4ccc(-c5cccc(F)c5)nc4)CC3)ncnc2c(OC)c1OC` [Example 123, 6-(3-Fluorophenyl)-N-[1-(678-trimethoxyquinazolin-4-yl)piperidin-4-yl]nicotinamide], the IC50 was 4.66 nM.

As to `O=C(NC1CCN(c2ncnc3[nH]ccc23)CC1)c1ccc(-c2cccc(F)c2)nc1` [Example 124, 6-(3-fluorophenyl)-N-[1-(7H-pyrrolo[23-d]pyrimidin-4-yl)piperidin-4-yl]nicotinamide], the IC50 was determined as 0.345 nM. For the molecule `Cn1cnc2c(N3CCC(NC(=O)c4ccc(-c5cccc(F)c5)nc4)CC3)ncnc21` [Example 125, 6-(3-Fluorophenyl)-N-[1-(9-methyl-9H-purin-6-yl)piperidin-4-yl]nicotinamide], the IC50 was 0.176 nM. For the molecule `N#Cc1cnc(N2CCC(NC(=O)c3ccc(-c4cccc(F)c4)nc3)CC2)nc1N` [Example 126, N-[1-(4-Amino-5-cyanopyrimidin-2-yl)piperidin-4-yl]-6-(3-fluorophenyl)nicotinamide], the IC50 came to 0.656 nM. As for `O=C(NC1CCN(c2ncc(Br)cn2)CC1)c1ccc(-c2cccc(F)c2)nc1` [Example 127, N-[1-(5-Bromopyrimidin-2-yl)piperidin-4-yl]-6-(3-fluorophenyl)nicotinamide], the concentration for half-maximal inhibition (IC50) is 4.01 nM. As to `O=C(NC1CCN(c2nccc(Nc3cc[nH]n3)n2)CC1)c1ccc(-c2cccc(F)c2)nc1` [Example 128, 6-(3-Fluorophenyl)-N-{1-[4-(1H-pyrazol-3-ylamino)pyrimidin-2-yl]piperidin-4-yl}nicotinamide], the IC50 was 0.687 nM.

Regarding `O=C(NC1CCN(c2ncnc3[nH]ncc23)CC1)c1ccc(-c2cccc(F)c2)nc1` [Example 129, 6-(3-Fluorophenyl)-N-[1-(1H-pyrazolo[3,4-d]pyrimidin-4-yl)piperidin-4-yl]nicotinamide], the IC50 turned out to be 6.24 nM. Take `COc1cc2nc(N3CCC(NC(=O)c4ccc(-c5cccc(F)c5)nc4)CC3)nc(N)c2cc1OC` [Example 130, N-[1-(4-Amino-6,7-dimethoxyquinazolin-2-yl)piperidin-4-yl]-6-(3-fluorophenyl)nicotinamide]: the concentration for half-maximal inhibition (IC50) was found to be 4.57 nM. With `Cc1nnc(N2CCC(NC(=O)c3ccc(-c4cccc(F)c4)nc3)CC2)c2ccccc12` [Example 131, 6-(3-Fluorophenyl)-N-[1-(4-methylphthalazin-1-yl)piperidin-4-yl]nicotinamide], the IC50 worked out at 0.463 nM.
